From the NIST ThermoML archive (doi:10.1021/je7003758) come the findings set out here.

For this series the following is noted: 298.15 K, Liquid.

Numbers after ± are expanded uncertainties.

On to `ClCCCl` [1,2-dichloroethane], for which the mass density (100 kPa) turned out to be 1245.5 ± 0.6 kg/m3 and the mass density (10000 kPa) was 1255.1 ± 1 kg/m3.
In the case of `ClCCCCCl` [1,4-dichlorobutane], the mass density (100 kPa) is given as 1133.7 ± 3.4 kg/m3.
Still for that read-out and setting: as for `ClCCCCCCCl` [1,6-dichlorohexane], the figure is 1063.8 ± 1.4 kg/m3.
For `CCCCCl` [1-chlorobutane], the mass density (100 kPa) came to 880.6 ± 0.3 kg/m3.
On the same count and under the same terms, as for `CCCCCCCl` [1-chlorohexane], the figure is 873.1 ± 0.6 kg/m3; as for `CCCCCCCCCl` [1-chlorooctane], 868.8 ± 1.3 kg/m3.
